Common to all, as to format: cell-based
In assay [1] the target is T1, TRPA1 (Mus musculus, UniProt Q8BLA8). Put plainly: Fluo-4 calcium imaging in transfected HEK293A cells, agonist at […].
The target of the next assay is TRPV4 (Rattus norvegicus, UniProt Q9ERZ8). Described as above.
The target in assay [2] is T2, TRPV1 (Mus musculus, UniProt Q704Y3). The assay can be described thus: Fluo-4 calcium imaging in TRPV1-transfected HEK293A cells, […].
Assay [3] concerns the target T1, TRPA1. The following applies: HEK293-A, read-out: % reduction at 50 μM.
Assay [4] deals with T2, TRPV1.
In assay [5] the target is T1, TRPA1. The following applies: HEK293-A, read-out: % reduction at 50 μM. This is another data set of the same source.
Assay [6] concerns the target T2, TRPV1. The conditions noted are these: HEK293-A, read-out: % reduction at 50 μM.
For assay [7], the target named is T2, TRPV1. Put plainly: Fluo-4 calcium imaging in transfected HEK293A cells, agonist at […].

Data on eight molecules can be found in PMC6055169 (Proceedings of the National Academy of Sciences of the …, 2018).

Where two headings read alike, the source gives them in different places.

T2 sequence (Q704Y3 whole entry): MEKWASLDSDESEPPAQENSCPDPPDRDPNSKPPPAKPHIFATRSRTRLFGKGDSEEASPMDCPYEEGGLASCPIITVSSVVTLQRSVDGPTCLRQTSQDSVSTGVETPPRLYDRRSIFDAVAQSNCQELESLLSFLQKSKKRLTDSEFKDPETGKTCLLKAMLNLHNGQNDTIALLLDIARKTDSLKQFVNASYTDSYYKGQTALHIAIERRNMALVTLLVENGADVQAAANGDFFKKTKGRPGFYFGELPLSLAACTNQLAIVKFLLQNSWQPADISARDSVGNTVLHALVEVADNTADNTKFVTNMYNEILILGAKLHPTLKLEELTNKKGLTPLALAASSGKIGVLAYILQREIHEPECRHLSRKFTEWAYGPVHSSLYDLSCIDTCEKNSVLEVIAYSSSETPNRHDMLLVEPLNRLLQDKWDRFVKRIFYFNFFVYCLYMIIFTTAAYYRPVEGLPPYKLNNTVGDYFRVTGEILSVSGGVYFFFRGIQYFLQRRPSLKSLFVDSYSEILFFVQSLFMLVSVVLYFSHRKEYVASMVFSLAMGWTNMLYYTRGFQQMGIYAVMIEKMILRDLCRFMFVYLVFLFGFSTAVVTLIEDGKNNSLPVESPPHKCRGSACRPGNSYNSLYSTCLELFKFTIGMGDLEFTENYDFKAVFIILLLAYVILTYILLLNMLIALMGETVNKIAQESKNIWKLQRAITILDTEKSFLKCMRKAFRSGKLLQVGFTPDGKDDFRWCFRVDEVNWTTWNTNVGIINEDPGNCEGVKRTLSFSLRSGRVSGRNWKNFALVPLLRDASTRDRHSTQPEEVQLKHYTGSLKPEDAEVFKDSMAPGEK
T1 sequence (Q8BLA8 whole entry): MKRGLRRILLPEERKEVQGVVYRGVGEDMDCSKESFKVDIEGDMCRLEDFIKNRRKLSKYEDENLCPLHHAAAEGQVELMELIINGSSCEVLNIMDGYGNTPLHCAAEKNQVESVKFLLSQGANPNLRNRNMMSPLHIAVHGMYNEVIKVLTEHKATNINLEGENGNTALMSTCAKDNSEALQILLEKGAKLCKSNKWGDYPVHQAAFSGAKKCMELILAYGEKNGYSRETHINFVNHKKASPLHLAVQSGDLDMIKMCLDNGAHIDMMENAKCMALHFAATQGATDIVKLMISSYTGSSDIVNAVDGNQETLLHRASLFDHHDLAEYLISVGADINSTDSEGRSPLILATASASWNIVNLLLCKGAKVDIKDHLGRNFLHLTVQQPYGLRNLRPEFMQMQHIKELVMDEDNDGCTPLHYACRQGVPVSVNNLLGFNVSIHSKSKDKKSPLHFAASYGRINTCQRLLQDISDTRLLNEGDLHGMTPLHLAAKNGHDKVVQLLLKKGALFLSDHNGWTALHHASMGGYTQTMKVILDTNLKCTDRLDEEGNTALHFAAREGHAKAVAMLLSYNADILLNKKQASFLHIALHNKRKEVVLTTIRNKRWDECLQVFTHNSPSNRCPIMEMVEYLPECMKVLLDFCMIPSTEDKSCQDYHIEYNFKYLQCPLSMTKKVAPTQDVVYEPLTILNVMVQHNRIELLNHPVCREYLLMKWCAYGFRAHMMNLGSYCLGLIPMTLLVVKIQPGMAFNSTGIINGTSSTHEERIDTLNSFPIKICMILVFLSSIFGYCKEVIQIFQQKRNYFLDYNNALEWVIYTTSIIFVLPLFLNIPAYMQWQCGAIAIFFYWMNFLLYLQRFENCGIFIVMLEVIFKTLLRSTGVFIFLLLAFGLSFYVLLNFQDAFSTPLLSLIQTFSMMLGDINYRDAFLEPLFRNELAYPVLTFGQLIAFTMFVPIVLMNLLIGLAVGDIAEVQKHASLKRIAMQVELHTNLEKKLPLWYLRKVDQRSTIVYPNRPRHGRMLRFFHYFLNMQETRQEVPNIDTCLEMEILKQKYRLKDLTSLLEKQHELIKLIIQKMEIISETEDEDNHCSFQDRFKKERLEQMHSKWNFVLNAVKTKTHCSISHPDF
Sequence of TRPV4 (Q9ERZ8 whole entry): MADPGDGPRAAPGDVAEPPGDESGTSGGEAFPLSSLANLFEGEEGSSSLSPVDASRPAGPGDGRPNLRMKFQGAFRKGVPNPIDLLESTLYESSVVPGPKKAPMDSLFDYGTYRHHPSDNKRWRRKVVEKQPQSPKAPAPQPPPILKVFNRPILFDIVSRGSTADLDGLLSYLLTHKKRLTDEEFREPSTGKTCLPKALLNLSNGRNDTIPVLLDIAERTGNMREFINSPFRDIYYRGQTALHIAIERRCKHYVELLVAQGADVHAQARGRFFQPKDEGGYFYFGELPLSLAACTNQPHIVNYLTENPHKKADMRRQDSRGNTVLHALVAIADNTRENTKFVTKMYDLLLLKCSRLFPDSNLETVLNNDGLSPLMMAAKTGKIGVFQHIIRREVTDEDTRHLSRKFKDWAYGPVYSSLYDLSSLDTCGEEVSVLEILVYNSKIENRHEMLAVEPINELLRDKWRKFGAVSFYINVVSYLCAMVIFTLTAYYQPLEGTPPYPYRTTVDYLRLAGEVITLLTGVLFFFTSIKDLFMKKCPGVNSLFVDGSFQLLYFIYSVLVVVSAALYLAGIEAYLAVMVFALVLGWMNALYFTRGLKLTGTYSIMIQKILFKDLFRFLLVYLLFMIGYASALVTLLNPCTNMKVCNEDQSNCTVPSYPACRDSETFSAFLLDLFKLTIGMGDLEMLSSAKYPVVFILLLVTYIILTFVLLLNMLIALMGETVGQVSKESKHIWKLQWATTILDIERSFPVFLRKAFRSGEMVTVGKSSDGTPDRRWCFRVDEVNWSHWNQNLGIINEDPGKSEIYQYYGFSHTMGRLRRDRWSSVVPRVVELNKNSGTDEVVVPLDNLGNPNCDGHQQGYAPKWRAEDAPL

Take `C=CCN=C=S` [allyl isothiocyanate]: the “Fluo-4 calcium imaging in transfected HEK293A cells, agonist at 10 μM” value on TRPA1 [1] is listed as “only channel-transfected, RFP^+ cells, but not untransfected, RFP^− cells, exhibited a calcium flux in response to the corresponding agonist”. Turning to `CC(C)C[C@H](NC(=O)c1cc2ccccc2s1)C(=O)N1CCN(C(=O)[C@H](CO)NS(=O)(=O)c2ccc(Cl)cc2Cl)CC1` [GSK1016790A], the “Fluo-4 calcium imaging in transfected HEK293A cells, agonist at 0.2 μM” value at TRPV4 is given as “only channel-transfected, RFP^+ cells, but not untransfected, RFP^− cells, exhibited a calcium flux in response to the corresponding agonist”. In the case of `CCCCCCCC/C=C\CCCCCCCC(=O)N[C@H](CCC(N)=O)C(=O)O` [C18:1-D-Gln], the “Fluo-4 calcium imaging in TRPV1-transfected HEK293A cells, 50 μM” value on TRPV1 [2] was “the unnatural enantiomer C18:1-D-Gln fully antagonized capsaicin-induced TRPV1 calcium flux”. For `CCCCCCCC/C=C\CCCCCCCC(=O)N[C@@H](CCC(N)=O)C(=O)O` [C18:1-Gln, N-oleoyl-glutamine], at TRPA1 [3], the inhibition at 50 µM is 94 ± 5%. Besides, the IC50 against TRPV1 [4] was found to be 1300 nM. On to `CCCCC/C=C\C/C=C\C/C=C\C/C=C\CCCC(=O)N[C@@H](Cc1ccccc1)C(=O)O` [C20:4-Phe], for which, on TRPA1 [5], the inhibition at 50 µM is 87 ± 5%. In the case of `CCCCC/C=C\C/C=C\C/C=C\C/C=C\CCCC(=O)N[C@@H](CO)C(=O)O` [C20:4-Ser], on TRPA1 [5], the inhibition at 50 µM is 68 ± 8%. On to `CCCCCCCC/C=C\CCCCCCCC(=O)N[C@@H](CC(N)=O)C(=O)O` [C18:1-Asn], for which the inhibition at 50 µM at TRPV1 [6] came to 49 ± 7%. In the case of `COc1cc(CNC(=O)CCCC/C=C/C(C)C)ccc1O` [capsaicin], the “Fluo-4 calcium imaging in transfected HEK293A cells, agonist at 10 μM” value on TRPV1 [7] is given as “capsaicin treatment induced a robust increase in the intracellular calcium concentration in the TRPV1-transfected, RFP^+ cells”.

The IC50 is the concentration that gives 50% inhibition. A lower IC50 goes with higher potency.
